{"source": "paper PMC6934184", "about": "“Selective DNA-PKcs inhibition extends the therapeutic index of localized radiotherapy and chemotherapy” (The Journal of Clinical Investigation, 2019)", "biological_target": "T1, ACVR2A (Homo sapiens, UniProt P27037)", "T1 construct": "purchased Thermo Fisher Scientific (Life Technologies) SelectScreen", "T1 sequence (P27037 20-513)": "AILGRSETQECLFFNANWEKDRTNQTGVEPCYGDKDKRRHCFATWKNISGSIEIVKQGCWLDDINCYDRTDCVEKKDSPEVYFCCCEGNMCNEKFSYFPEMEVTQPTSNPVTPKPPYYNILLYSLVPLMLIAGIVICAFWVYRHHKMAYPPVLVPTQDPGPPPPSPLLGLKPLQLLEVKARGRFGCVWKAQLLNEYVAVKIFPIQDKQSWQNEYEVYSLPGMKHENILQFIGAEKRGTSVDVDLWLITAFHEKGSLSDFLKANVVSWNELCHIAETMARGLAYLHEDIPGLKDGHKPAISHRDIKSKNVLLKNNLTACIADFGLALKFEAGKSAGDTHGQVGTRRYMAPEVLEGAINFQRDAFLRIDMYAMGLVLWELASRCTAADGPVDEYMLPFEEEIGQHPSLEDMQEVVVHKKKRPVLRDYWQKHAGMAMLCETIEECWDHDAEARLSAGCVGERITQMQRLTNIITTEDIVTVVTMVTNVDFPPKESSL", "experiment": "SelectScreen LanthaScreen", "type": "binding", "conditions": "read-out: % displacement", "how_it_was_run": "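SelectScreen broad panel; activity (Z'LYTE, Adapta) plus binding formats. ATP: Km app for CSF1R Z'LYTE; 10 for CAMK1 Adapta. Readout = % per kinase.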"}
{"smiles": "CN(C(=O)CN1CCOCC1)c1ccc2sc3c(-c4cccc5c(=O)cc(N6CC7CCC(C6)O7)oc45)cccc3c2c1", "note": "[NU5455]", "values": [{"measurement": "inhibition at 1 µM", "value": 2.5, "unit": "%"}]}
